# In ChEMBL document CHEMBL1201862, “PubChem BioAssay data set” (2004):
#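 Briefly, cells in 96-well plates were exposed to five compound concentrations for 48 h, and endpoints were estimated by linear interpolation. GI50 = concentration required for 50% inhibition of growth.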 Active and inactive are the calls of the source. Cut-off read from the data, not from the text of the source: active = GI50 up to about 1.1 µM and inactive = higher.
# Legend:
# Assay in all cases: NCI anticancer screen, dose series, 48 h
# U-251 = test system: U-251
# SNB-75 = test system: SNB-75
# COLO 205 = test system: COLO 205
# Malme-3M = test system: Malme-3M
# CCRF-CEM = test system: CCRF-CEM
# RPMI-8226 = test system: RPMI-8226
# ACHN = test system: ACHN
# NCI-H23 = test system: NCI-H23
# RXF 393 = test system: RXF 393
# SF-268 = test system: SF-268
# SNB-19 = test system: SNB-19
# M14 = test system: M14
# SK-OV-3 = test system: SK-OV-3
# OVCAR-4 = test system: OVCAR-4
# K562 = test system: K562
# OVCAR-8 = test system: OVCAR-8
# PC-3 = test system: PC-3
# MDA-N = test system: MDA-N
# MCF7 = test system: MCF7
# Hs-578T = test system: Hs-578T
Structure (SMILES),GI50 (U-251),GI50 (SNB-75),GI50 (COLO 205),GI50 (Malme-3M),GI50 (CCRF-CEM),GI50 (RPMI-8226),GI50 (ACHN),GI50 (NCI-H23),GI50 (RXF 393),GI50 (SF-268),GI50 (SNB-19),GI50 (M14),GI50 (SK-OV-3),GI50 (OVCAR-4),GI50 (K562),GI50 (OVCAR-8),GI50 (PC-3),GI50 (MDA-N),GI50 (MCF7),GI50 (Hs-578T)
Cc1ccc(NC(=O)C(=O)C2C(=O)NC(=O)NC2=O)c(C)c1,> 100 µM (inactive),> 100 µM (inactive),13.8 µM (inactive),> 100 µM (inactive),> 100 µM (inactive),> 100 µM (inactive),> 100 µM (inactive),> 100 µM (inactive),> 100 µM (inactive),> 100 µM (inactive),> 100 µM (inactive),> 100 µM (inactive),> 100 µM (inactive),> 100 µM (inactive),> 100 µM (inactive),> 100 µM (inactive),–,–,–,–
Nc1ccc2ncc(NCc3ccc(F)cc3)nc2c1,> 100 µM (inactive),25.4 µM (inactive),> 100 µM (inactive),> 100 µM (inactive),> 100 µM (inactive),62.2 µM (inactive),64.9 µM (inactive),> 100 µM (inactive),34.4 µM (inactive),48.2 µM (inactive),> 100 µM (inactive),> 100 µM (inactive),85.9 µM (inactive),92.3 µM (inactive),87.9 µM (inactive),90.4 µM (inactive),–,–,–,–
N#Cc1c(N)c(C#N)c2c(c1-c1ccc(Cl)cc1)COc1ccccc1-2,14.7 µM (inactive),–,48 µM (inactive),22 µM (inactive),16.5 µM (inactive),3.27 µM (inactive),13.7 µM (inactive),16.7 µM (inactive),15.4 µM (inactive),29.4 µM (inactive),14.5 µM (inactive),38.6 µM (inactive),18.4 µM (inactive),11.1 µM (inactive),16.5 µM (inactive),–,16.8 µM (inactive),18.5 µM (inactive),29 µM (inactive),–
C[N+](C)(C)CC(=O)N/N=C(\C(=O)Nc1ccc(Cl)cc1)C1C(=O)N(c2ccccc2)N=C1N (stereo unspecified),> 100 µM (inactive),> 100 µM (inactive),> 100 µM (inactive),> 100 µM (inactive),> 100 µM (inactive),> 100 µM (inactive),> 100 µM (inactive),> 100 µM (inactive),> 100 µM (inactive),> 100 µM (inactive),> 100 µM (inactive),> 100 µM (inactive),> 100 µM (inactive),> 100 µM (inactive),> 100 µM (inactive),> 100 µM (inactive),–,–,–,–
O[C@H]1[C@H](O)[C@H](O)CN2CCC[C@@H](O)[C@H]12,> 100 µM (inactive),81.1 µM (inactive),> 100 µM (inactive),–,> 100 µM (inactive),> 100 µM (inactive),> 100 µM (inactive),> 100 µM (inactive),> 100 µM (inactive),> 100 µM (inactive),> 100 µM (inactive),> 100 µM (inactive),> 100 µM (inactive),> 100 µM (inactive),> 100 µM (inactive),> 100 µM (inactive),> 100 µM (inactive),–,> 100 µM (inactive),> 100 µM (inactive)
CCOC(=O)c1c(-c2ccc(Cl)cc2)c(C#N)c(=S)n(C2OC(COC(C)=O)C(OC(C)=O)C(OC(C)=O)C2OC(C)=O)c1C (stereo unspecified),> 100 µM (inactive),0.689 µM (active),> 100 µM (inactive),> 100 µM (inactive),> 100 µM (inactive),–,> 100 µM (inactive),> 100 µM (inactive),> 100 µM (inactive),> 100 µM (inactive),> 100 µM (inactive),> 100 µM (inactive),> 100 µM (inactive),90.2 µM (inactive),> 100 µM (inactive),> 100 µM (inactive),0.759 µM (active),> 100 µM (inactive),> 100 µM (inactive),–
c1csc(-c2cscc2-c2cccs2)c1,> 100 µM (inactive),69.2 µM (inactive),50.8 µM (inactive),–,44.1 µM (inactive),43.6 µM (inactive),> 100 µM (inactive),28.2 µM (inactive),27.6 µM (inactive),> 100 µM (inactive),> 100 µM (inactive),27.7 µM (inactive),32.9 µM (inactive),46 µM (inactive),37.3 µM (inactive),57.4 µM (inactive),5.38 µM (inactive),–,20.2 µM (inactive),54.8 µM (inactive)
O=C1C[C@H]2CCCN2[C@@H](c2ccccc2)C1,> 100 µM (inactive),> 100 µM (inactive),> 100 µM (inactive),> 100 µM (inactive),> 100 µM (inactive),> 100 µM (inactive),> 100 µM (inactive),> 100 µM (inactive),> 100 µM (inactive),> 100 µM (inactive),> 100 µM (inactive),> 100 µM (inactive),> 100 µM (inactive),> 100 µM (inactive),> 100 µM (inactive),> 100 µM (inactive),–,–,–,–
CC(=O)OC1=C(CC(C)(C)C)C(=O)c2ccccc2C1=O,44.8 µM (inactive),27.4 µM (inactive),23.6 µM (inactive),–,19.3 µM (inactive),17.1 µM (inactive),35.6 µM (inactive),15.6 µM (inactive),28.3 µM (inactive),21.6 µM (inactive),42.6 µM (inactive),30.4 µM (inactive),25.3 µM (inactive),37.8 µM (inactive),18.5 µM (inactive),27.2 µM (inactive),29.1 µM (inactive),–,39.5 µM (inactive),14.5 µM (inactive)
O=C1NC(=O)C2C1c1[nH]c3ccccc3c1C1CCCC12 (stereo unspecified),3.1 µM (inactive),2.17 µM (inactive),4.23 µM (inactive),2.52 µM (inactive),1.86 µM (inactive),3.41 µM (inactive),22.3 µM (inactive),3.79 µM (inactive),2.7 µM (inactive),4.02 µM (inactive),5.07 µM (inactive),1.73 µM (inactive),4.49 µM (inactive),25.6 µM (inactive),0.48 µM (active),4.93 µM (inactive),–,–,–,–
[O-][n+]1c2ccccc2[n+]([O-])c2ccccc21,> 100 µM (inactive),> 100 µM (inactive),15.6 µM (inactive),> 100 µM (inactive),4.32 µM (inactive),16.8 µM (inactive),61 µM (inactive),24 µM (inactive),–,> 100 µM (inactive),86.3 µM (inactive),33.1 µM (inactive),–,> 100 µM (inactive),> 100 µM (inactive),86.3 µM (inactive),> 100 µM (inactive),–,48.1 µM (inactive),> 100 µM (inactive)
O=C(Cn1c(C(=O)c2ccccc2)nc2ccccc21)c1ccccc1,> 77.1 µM (inactive),> 100 µM (inactive),> 100 µM (inactive),> 96.2 µM (inactive),> 100 µM (inactive),> 100 µM (inactive),> 100 µM (inactive),> 100 µM (inactive),> 100 µM (inactive),> 100 µM (inactive),> 100 µM (inactive),> 100 µM (inactive),> 100 µM (inactive),96.8 µM (inactive),–,> 100 µM (inactive),> 72.4 µM (inactive),–,> 100 µM (inactive),30.5 µM (inactive)
O=c1[nH]cnc2c(COCCO)c[nH]c12,> 100 µM (inactive),> 100 µM (inactive),> 100 µM (inactive),> 100 µM (inactive),> 100 µM (inactive),> 100 µM (inactive),> 100 µM (inactive),> 100 µM (inactive),> 100 µM (inactive),> 100 µM (inactive),> 100 µM (inactive),> 100 µM (inactive),> 100 µM (inactive),> 100 µM (inactive),> 100 µM (inactive),> 100 µM (inactive),–,–,–,–
CCCCCCCC(=O)OCC1OC(n2cc(F)c(=O)[nH]c2=O)C(NC(=O)OCc2ccccc2)C(O)C1O (stereo unspecified),80.2 µM (inactive),29.3 µM (inactive),37.8 µM (inactive),> 100 µM (inactive),26.5 µM (inactive),26.4 µM (inactive),> 100 µM (inactive),> 100 µM (inactive),> 100 µM (inactive),46.9 µM (inactive),53.3 µM (inactive),> 100 µM (inactive),> 100 µM (inactive),> 100 µM (inactive),28.2 µM (inactive),> 100 µM (inactive),–,–,–,–
CC1(C)OCC2(CO1)CSCCCSCC1(COC(C)(C)OC1)CSCCCSC2,> 100 µM (inactive),90.6 µM (inactive),> 100 µM (inactive),–,> 100 µM (inactive),> 100 µM (inactive),–,> 100 µM (inactive),–,> 100 µM (inactive),> 100 µM (inactive),> 100 µM (inactive),> 100 µM (inactive),> 100 µM (inactive),> 100 µM (inactive),> 100 µM (inactive),> 100 µM (inactive),> 100 µM (inactive),> 10 µM (inactive),–
COc1ccc2nc3ccc(OC)cc3c([S+]([O-])Cc3ccccc3)c2c1 (stereo unspecified),20.5 µM (inactive),15.5 µM (inactive),7.26 µM (inactive),2.42 µM (inactive),2.65 µM (inactive),2.3 µM (inactive),4.03 µM (inactive),8.81 µM (inactive),13.6 µM (inactive),16.9 µM (inactive),18 µM (inactive),14.4 µM (inactive),18.8 µM (inactive),14.9 µM (inactive),8.51 µM (inactive),3.48 µM (inactive),14.2 µM (inactive),–,2.3 µM (inactive),8.22 µM (inactive)
